Data as given in the supplement of paper PMC10307832.

What was measured:
Assay in all cases: relative viability (nuclei count vs DMSO), 5 days (fraction); higher = more cells survive
Seliciclib + Vorinostat = compound: CC[C@H](CO)Nc1nc(NCc2ccccc2)c2ncn(C(C)C)c2n1 [Seliciclib] + O=C(CCCCCCC(=O)Nc1ccccc1)NO [Vorinostat] (partner 1 µM)
In short: (§1)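 For relative viability, nuclei counts in treated wells were divided by those in vehicle wells. Lung cancer cell lines had been pin-tool dosed in 1536-well plates the day after seeding and cultured for 5 days, then fixed and stained in one step (final 0.05% Triton X-100, 1% formaldehyde, 1 ug/ml Hoechst) and imaged at 4×. Doses were one drug alone or a fixed anchor-drug dose plus five library-drug doses (not always all listed) in √10 steps, and values are duplicate-plate medians.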

Seliciclib + Palbociclib = compound: CC[C@H](CO)Nc1nc(NCc2ccccc2)c2ncn(C(C)C)c2n1 [Seliciclib] + CC(=O)c1c(C)c2cnc(Nc3ccc(N4CCNCC4)cn3)nc2n(C2CCCC2)c1=O [Palbociclib] (partner 0.5 µM)
In short: as §1

Seliciclib + Dasatinib = compound: CC[C@H](CO)Nc1nc(NCc2ccccc2)c2ncn(C(C)C)c2n1 [Seliciclib] + Cc1nc(Nc2ncc(C(=O)Nc3c(C)cccc3Cl)s2)cc(N2CCN(CCO)CC2)n1 [Dasatinib] (partner 0.075 µM)
In short: as §1

Seliciclib + Pemetrexed = compound: CC[C@H](CO)Nc1nc(NCc2ccccc2)c2ncn(C(C)C)c2n1 [Seliciclib] + Nc1nc2[nH]cc(CCc3ccc(C(=O)N[C@@H](CCC(=O)O)C(=O)O)cc3)c2c(=O)[nH]1 [Pemetrexed] (partner 0.2 µM)
In short: as §1

Cell Line	relative viability (Seliciclib + Vorinostat; first compound 0.08 µM)	relative viability (Seliciclib + Vorinostat; first compound 0.253 µM)	relative viability (Seliciclib + Vorinostat; first compound 0.8 µM)	relative viability (Seliciclib + Vorinostat; first compound 2.53 µM)	relative viability (Seliciclib + Vorinostat; first compound 8 µM)	relative viability (Seliciclib + Palbociclib; first compound 0.08 µM)	relative viability (Seliciclib + Palbociclib; first compound 0.253 µM)	relative viability (Seliciclib + Palbociclib; first compound 0.8 µM)	relative viability (Seliciclib + Palbociclib; first compound 2.53 µM)	relative viability (Seliciclib + Palbociclib; first compound 8 µM)	relative viability (Seliciclib + Dasatinib; first compound 0.08 µM)	relative viability (Seliciclib + Dasatinib; first compound 0.253 µM)	relative viability (Seliciclib + Dasatinib; first compound 0.8 µM)	relative viability (Seliciclib + Dasatinib; first compound 2.53 µM)	relative viability (Seliciclib + Dasatinib; first compound 8 µM)	relative viability (Seliciclib + Pemetrexed; first compound 0.08 µM)	relative viability (Seliciclib + Pemetrexed; first compound 0.253 µM)	relative viability (Seliciclib + Pemetrexed; first compound 0.8 µM)	relative viability (Seliciclib + Pemetrexed; first compound 2.53 µM)	relative viability (Seliciclib + Pemetrexed; first compound 8 µM)
201T	0.967	1.07	0.904	0.637	0.906	0.329	0.349	0.353	0.327	0.277	0.502	0.654	0.589	0.385	0.548	0.379	0.357	0.382	0.27	0.323
A-427	0.856	0.815	0.877	0.823	0.824	0.488	0.55	0.504	0.468	0.427	0.612	0.691	0.687	0.735	0.738	1.01	1.01	1.03	0.963	0.917
ABC-1	0.996	0.953	1.29		0.774	0.673	0.565	0.863		0.562	0.536	0.566	0.598	0.524	0.509					
BEN	0.543	0.533	0.55	0.502	0.489	0.476	0.469	0.473	0.499	0.453	0.311	0.313	0.375	0.271	0.322	0.805	0.676	0.67	0.611	0.63
CAL-12T	0.583	0.407	0.788	0.7	0.625	0.524	0.469	0.354	0.226	0.207	0.501	0.738	0.362	0.23	0.284	1.16	0.949	1.2	1.06	1.01
COR-L23	0.402	0.43	0.403	0.458	0.359	0.298	0.315	0.262	0.19	0.165	0.457	0.644	0.484	0.342	0.383	0.209	0.192	0.195	0.198	0.212
COR-L 105	0.83	0.901	0.859	0.802	0.575	0.432	0.392	0.276	0.365	0.397	0.377	0.405	0.324	0.311	0.37	0.98	1.09	1.21	1.09	1.01
ChaGo-K-1	0.758	0.628	0.743	0.654	0.433	0.915	0.957	0.755	0.875	0.805	0.588	0.637	0.661	0.478	0.495	0.25	0.253	0.264	0.251	0.251
EKVX	0.627	0.857	0.553	0.633	0.593	0.365	0.305	0.311	0.16	0.204	0.53	0.55	0.573	0.47	0.493	0.368	0.37	0.354	0.379	0.472
EMC-BAC-2	0.454	0.414	0.547	0.259	0.307	0.516	0.474	0.543	0.423	0.455	0.305	0.288	0.399	0.218	0.277	0.417	0.476	0.547	0.468	0.508
EPLC-272H	0.43	0.506	0.476	0.311	0.405	0.33	0.247	0.284	0.323	0.311	0.329	0.298	0.408	0.183	0.266	0.326	0.357	0.274	0.329	0.229
H3255	0.854	0.825	0.855	0.691	0.755	0.344	0.314	0.306	0.26	0.293	0.341	0.447	0.335	0.279	0.324	0.555	0.624	0.639	0.471	0.534
HARA	0.555	0.518	0.588	0.381	0.487	0.284	0.282	0.229	0.259	0.163	0.288	0.274	0.319	0.228	0.245	0.238	0.28	0.244	0.227	0.21
HCC-15	0.893	0.855	0.838	0.747	0.761	0.846	0.782	0.666	0.726	0.493	0.645	0.633	0.461	0.512	0.448	0.221	0.223	0.219	0.218	0.226
HCC-44	1.14	1.19	1.06	1.08	1.07	0.969	1.02	0.994	0.883	0.889						0.631	0.676	0.684	0.617	0.645
HCC-78	0.393	0.518	0.389	0.396	0.32	0.504	0.438	0.514	0.395	0.382	0.427	0.416	0.371	0.259	0.28	0.852	0.89	0.914	0.958	0.88
HCC-366	0.317	0.467	0.377	0.212	0.164	0.35	0.272	0.345	0.328	0.166	0.565	0.376	0.57	0.381	0.473	0.153	0.327	0.212	0.295	0.241
HCC-827	0.845	0.951	0.912	0.77	0.756	0.486	0.493	0.456	0.39	0.231	0.359	0.298	0.258	0.324	0.236	0.251	0.241	0.258	0.297	0.258

Cell Line	relative viability (Seliciclib + Vorinostat; first compound 0.08 µM)	relative viability (Seliciclib + Vorinostat; first compound 0.253 µM)	relative viability (Seliciclib + Vorinostat; first compound 0.8 µM)	relative viability (Seliciclib + Vorinostat; first compound 2.53 µM)	relative viability (Seliciclib + Vorinostat; first compound 8 µM)	relative viability (Seliciclib + Palbociclib; first compound 0.08 µM)	relative viability (Seliciclib + Palbociclib; first compound 0.253 µM)	relative viability (Seliciclib + Palbociclib; first compound 0.8 µM)	relative viability (Seliciclib + Palbociclib; first compound 2.53 µM)	relative viability (Seliciclib + Palbociclib; first compound 8 µM)	relative viability (Seliciclib + Dasatinib; first compound 0.08 µM)	relative viability (Seliciclib + Dasatinib; first compound 0.253 µM)	relative viability (Seliciclib + Dasatinib; first compound 0.8 µM)	relative viability (Seliciclib + Dasatinib; first compound 2.53 µM)	relative viability (Seliciclib + Dasatinib; first compound 8 µM)	relative viability (Seliciclib + Pemetrexed; first compound 0.08 µM)	relative viability (Seliciclib + Pemetrexed; first compound 0.253 µM)	relative viability (Seliciclib + Pemetrexed; first compound 0.8 µM)	relative viability (Seliciclib + Pemetrexed; first compound 2.53 µM)	relative viability (Seliciclib + Pemetrexed; first compound 8 µM)
HOP-62	0.65	0.623	0.732	0.479	0.437	0.463	0.398	0.397	0.366	0.308	0.661	0.58	0.578	0.603	0.653	0.285	0.326	0.383	0.339	0.351
IA-LM	0.895	0.984	0.848	0.935	0.867															
LC-2-ad	0.7	0.68	0.671	0.445	0.528	0.49	0.524	0.494	0.466	0.371	0.638	0.802	0.63	0.326	0.459	0.264	0.25	0.285	0.279	0.248
LCLC-97TM1	0.803	0.706	0.82	0.106	0.222	0.219	0.242	0.186	0.184	0.108	0.758	0.965	0.732	0.333	0.704	0.206	0.148	0.192	0.135	0.135
LCLC-103H	0.753	0.764	0.733	0.448	0.68	0.524	0.51	0.486	0.469	0.423	0.535	0.499	0.57	0.276	0.481	0.377	0.439	0.514	0.456	0.494
LK-2	0.33	0.253	0.335	0.242	0.204	0.466	0.423	0.509	0.447	0.285	0.305	0.414	0.436	0.226	0.217	0.25	0.274	0.266	0.166	0.195
LOU-NH91		0.863	0.803	0.778	0.613		0.56	0.513	0.492	0.466	0.493	0.515	0.535	0.413	0.427		0.394	0.367	0.44	0.393
LU99A	0.538	0.383	0.458	0.383	0.455	0.378	0.332	0.357	0.318	0.275	0.611	0.521	0.588	0.262	0.507	0.172	0.211	0.204	0.197	0.188
LXF-289	0.735	0.824	0.671	0.582	0.457	0.561	0.677	0.59	0.543	0.501	0.245	0.202	0.248	0.128	0.221	0.883	1.04	0.81	0.932	0.842
NCI-H23	0.648	0.554	0.618	0.367	0.499	0.548	0.49	0.416	0.335	0.258	0.855	0.785	0.756	0.296	0.643	0.715	0.72	0.619	0.337	0.489
NCI-H322M	0.894	1.03	0.87	0.773	0.521	0.472	0.538	0.467	0.428	0.431	0.257	0.267	0.263	0.232	0.219	0.615	0.716	0.564	0.636	0.619
NCI-H358	0.726	0.942	0.513	0.711	0.267	0.13	0.167	0.133	0.105	0.107	0.196	0.153	0.148	0.129	0.137	0.17	0.178	0.167	0.159	0.169
NCI-H441	0.844	0.418	0.898	0.771	0.639	0.199	0.217	0.203	0.144	0.14	0.732	0.848	0.536	0.339	0.601	0.232	0.246	0.228	0.249	0.276
NCI-H596	0.635		0.56	0.506	0.47						0.658		0.594	0.606	0.515	0.484		0.534	0.557	0.51
NCI-H727	1.19	1.25	1.04	0.744	1.07	0.619	0.601	0.555	0.577	0.575	0.481	0.504	0.342	0.307	0.336					
NCI-H1563											0.536	0.525	0.503	0.416	0.428	0.8	0.716	0.85	0.698	0.668
NCI-H1648	0.519	0.909	0.417	0.365	0.373	0.259	0.332	0.308	0.231	0.169						0.767	0.922	0.963	0.675	0.591
NCI-H1792						0.655	0.717	0.613		0.566	0.754	0.788	0.766		0.743	0.795	0.694	0.82		0.868
